Tested on: HCV replicon RNA-containing Huh7 cells (clone A cells)
Assay: HCV replicon assay
Format: cell-based
Conditions: Hepatitis C virus, Huh-7, 96 h, read-out: CloneA EC90, Huh7 clone A replicon cells; incubation 4 days; replicon RNA by RT-PCR; ΔCt of 3.3 = 1-log 10 reduction (EC90)
Protocol: HCV replicon assay. HCV replicon RNA-containing Huh7 cells (clone A cells; Apath, LLC, St. Louis, Mo.) were kept at exponential growth in Dulbecco's modified Eagle's medium (high glucose) containing 10% fetal bovine serum, 4 mM L-glutamine and 1 mM sodium pyruvate, 1× nonessential amino acids, and G418 (1,000 μg/ml). Antiviral assays were performed in the same medium without G418. Cells were seeded in a 96-well plate at 1,500 cells per well, and test compounds were added immediately after seeding. Incubation time 4 days. At the end of the incubation step, total cellular RNA was isolated (RNeasy 96 kit; Qiagen). Replicon RNA and an internal control (TaqMan rRNA control reagents; Applied Biosystems) were amplified in a single-step multiplex RT-PCR protocol as recommended by the manufacturer. The HCV primers and probe were designed with Primer Express software (Applied Biosystems) and covered highly conserved 5′-untranslated region (UTR) sequences (sense primer: 5′-AGCCATGGCGTTAGTA(T)GAGTGT-3′ (SEQ ID NO: 1); antisense primer: 5′-TTCCGCAGACCACTATGG-3′ (SEQ ID NO:2); and probe; 5′-FAM-[…]-TAMRA-3′ (SEQ ID NO:3)).
To express the antiviral effectiveness of a compound, the threshold RT-PCR cycle of the test compound was subtracted from the average threshold RT-PCR cycle of the no-drug control (ΔCtHCV). A ΔCt of 3.3 equals a 1-log 10 reduction (equal to the 90% effective concentration [EC90]) in replicon RNA levels. The cytotoxicity of the test compound could also be expressed by calculating the ΔCtrRNA values. The ΔΔCt specificity parameter could then be introduced (ΔCtHCV-ΔCtrRNA), in which the levels of HCV RNA are normalized for the rRNA levels and calibrated against the no-drug control.

Structure (SMILES)	EC90 [µM]
CO[P@]1(=O)OC[C@H]2O[C@@H](n3ccc(N)nc3=O)[C@](C)(F)[C@@H]2O1 [Compound 5, 4-Amino-1-((2R,4aR,6R,7R,7aR)-7-fluoro-2-methoxy-7-methyl-2-oxo-tetrahydro-2λ^5-furo[3,2-d][1,3,2]dioxaphosphinin-6-yl)-1H-pyrimidin-2-one]	8.06
COP1(=O)OC[C@H]2O[C@@H](n3cnc4c(NC5CCC5)nc(N)nc43)[C@](C)(F)[C@@H]2O1 (stereo partly drawn) [Compound 6, N^6-Cyclobutyl-9((4aR,6R,7R,7aR)-7-fluoro-2-methoxy-7-methyl-2-oxo-tetrahydro-2λ^5-furo[3,2-d][1,3,2]dioxaphosphinin-6-yl)-9H-purine-2,6-diamine]	1.55
COP1(=O)OC[C@H]2O[C@@H](n3cnc4c(O)nc(N)nc43)[C@](C)(F)[C@@H]2O1 (stereo partly drawn) [Compound 4, 2-Amino-9-((4aR,6R,7R,7aR)-7-fluoro-2-methoxy-7-methyl-2-oxo-tetrahydro-2λ^5-furo[3,2-d][1,3,2]dioxaphosphinin-6-yl)-9H-purin-6-ol]	11.7

Same assay, conditions: Hepatitis C virus, Huh-7, 96 h; Huh7 clone A replicon cells; incubation 4 days; replicon RNA by RT-PCR; ΔCt of 3.3 = 1-log 10 reduction (EC90); read-out: CloneA EC90

Structure (SMILES)	EC90 [µM]
CCOc1nc(N)nc2c1ncn2[C@@H]1O[C@@H]2CO[P@](=O)(OCc3ccccc3)O[C@H]2[C@@]1(C)F [Example 48, 9-((4aR,6R,7R,7aR)-2-Benzyloxy-7-fluoro-7-methyl-2-oxo-tetrahydro-2λ5-furo[3,2-d][1,3,2]dioxaphosphinin-6-yl)-6-ethoxy-9H-purin-2-ylamine]	0.32
COc1nc(N)nc2c1ncn2[C@@H]1O[C@@H]2COP(=O)(OCc3ccccc3)O[C@H]2[C@@]1(C)F (stereo in doubt) [Example 44, 9-((2R,4aR,6R,7R,7aR)-2-Benzyloxy-7-fluoro-7-methyl-2-oxo-tetrahydro-2λ^5-furo[3,2-d][1,3,2]dioxaphosphinin-6-yl)-6-methoxy-9H-purin-2-ylamine]	0.053
C[C@@]1(F)[C@@H]2O[P@](=O)(OCC3CC3)OC[C@H]2O[C@H]1n1cnc2c(O)nc(N)nc21 (single isomer, unassigned) [Example 38b]	26.6
C[C@@]1(F)[C@@H]2O[P@@](=O)(OCc3ccccc3)OC[C@H]2O[C@H]1n1ccc(=O)[nH]c1=O (single isomer, unassigned) [Compound 2a]	25.2
C[C@@]1(F)[C@@H]2O[P@@](=O)(OC3CCCC3)OC[C@H]2O[C@H]1n1cnc2c(N3CCC3)nc(N)nc21 [Example 32b, 6-Azetidin-1-yl-9-((4aR,6R,7R,7aR)-2-cyclopentyloxy-7-fluoro-7-methyl-2-oxo-tetrahydro-2λ^5-furo[3,2-d][1,3,2]dioxaphosphinin-6-yl)-9H-purin-2-ylamine]	4.7
C[C@@]1(F)[C@@H]2O[P@](=O)(OC3CCCC3)OC[C@H]2O[C@H]1n1cnc2c(N3CCC3)nc(N)nc21 [Example 32a, 6-Azetidin-1-yl-9-((4aR,6R,7R,7aR)-2-cyclopentyloxy-7-fluoro-7-methyl-2-oxo-tetrahydro-2λ^5-furo[3,2-d][1,3,2]dioxaphosphinin-6-yl)-9H-purin-2-ylamine]	8.54
C[C@@]1(F)[C@@H]2O[P@@](=O)(OCc3ccccc3)OC[C@H]2O[C@H]1n1ccc(=O)[nH]c1=O [Compound 2b, 1-((2S,4aR,6R,7R,7aR)-2-Benzyloxy-7-fluoro-7-methyl-2-oxo-tetrahydro-2λ^5-furo[3,2-d][1,3,2]dioxaphosphinin-6-yl)-1H-pyrimidine-2,4-dione]	17.7
CCOc1nc(N)nc2c1ncn2[C@@H]1O[C@@H]2COP(=O)(O)O[C@H]2[C@@]1(C)F [Example 45, (4aR,6R,7R,7aR)-6-(2-Amino-6-ethoxy-purin-9-yl)-7-fluoro-7-methyl-2-oxo-tetrahydro-2λ^5-furo[3,2-d][1,3,2]dioxaphosphinin-2-ol]	0.7
COc1nc(N)nc2c1ncn2[C@@H]1O[C@@H]2COP(=O)(OC(C)C)O[C@H]2[C@@]1(C)F (single isomer, unassigned) [Example 43a]	0.29
COc1nc(N)nc2c1ncn2[C@@H]1O[C@@H]2CO[P@](=O)(OC(C)C)O[C@H]2[C@@]1(C)F (single isomer, unassigned) [Example 43b]	0.06
COc1nc(N)nc2c1ncn2[C@@H]1O[C@@H]2COP(=O)(O)O[C@H]2[C@@]1(C)F [Example 41, (4aR,6R,7R,7aR)-6-(2-Amino-6-methoxy-purin-9-yl)-7-fluoro-7-methyl-2-oxo-tetrahydro-2λ^5-furo[3,2-d][1,3,2]dioxaphosphinin-2-ol]	0.098

Same assay, conditions: Huh7 clone A replicon cells; incubation 4 days; replicon RNA by RT-PCR; ΔCt of 3.3 = 1-log 10 reduction (EC90); read-out: CloneA EC90

Structure (SMILES)	EC90 [µM]
CCOc1nc(N)nc2c1ncn2[C@@H]1O[C@@H]2COP(=O)(OC)O[C@H]2[C@@]1(C)F (stereo partly drawn) [Compound 18, 6-Ethoxy-9-((4aR,6R,7R,7aR)-7-fluoro-2-methoxy-7-methyl-2-oxo-tetrahydro-2,5-furo[3,2-d][1,3,2]dioxaphosphinin-6-yl)-9H-purin-2-ylamine]	0.48
CCOc1nc(N)nc2c1ncn2[C@@H]1O[C@@H]2COP(=O)(OC(C)C)O[C@H]2[C@@]1(C)F (stereo partly drawn) [Compound 19, 6-Ethoxy-9-((4aR,6R,7R,7aR)-7-fluoro-2-isopropoxy-7-methyl-2-oxo-tetrahydro-2,5-furo[3,2-d][1,3,2]dioxaphosphinin-6-yl)-9H-purin-2-yl amine]	0.6

Same assay, conditions: read-out: CloneA EC90; Huh7 clone A replicon cells; incubation 4 days; replicon RNA by RT-PCR; ΔCt of 3.3 = 1-log 10 reduction (EC90)

Structure (SMILES)	EC90 [µM]
CO[P@@]1(=O)OC[C@H]2O[C@@H](n3ccc(=O)[nH]c3=O)[C@](C)(F)[C@@H]2O1 [Compound 1b, 1-((2S,4aR,6R,7R,7aR)-7-Fluoro-2-methoxy-7-methyl-2-oxo-tetrahydro-2λ^5-furo[3,2-d][1,3,2]dioxaphosphinin-6-yl)-1H-pyrimidine-2,4-dione]	17.4
COP1(=O)OC[C@H]2O[C@@H](n3cnc4c(N5CCC5)nc(N)nc43)[C@](C)(F)[C@@H]2O1 (stereo partly drawn) [Compound 3, 6-Azetidin-1-yl-9-((4aR,6R,7R,7aR)-7-fluoro-2-methoxy-7-methyl-2-oxo-tetrahydro-2λ^5-furo[3,2-d][1,3,2]dioxaphosphinin-6-yl)-9H-purin-2-ylamine]	0.75
CO[P@@]1(=O)OC[C@H]2O[C@@H](n3ccc(=O)[nH]c3=O)[C@](C)(F)[C@@H]2O1 [Compound 1a, 1-((2S,4aR,6R,7R,7aR)-7-Fluoro-2-methoxy-7-methyl-2-oxo-tetrahydro-2λ^5-furo[3,2-d][1,3,2]dioxaphosphinin-6-yl)-1H-pyrimidine-2,4-dione]	5.35
